This is an account of results in US7335682B2, “Pharmaceutical compositions and methods for treating immune-response associated diseases of the surface and the anterior segment of the eye” (The Zhongshan Opthalmic Center, priority 2000, dated 2008).

The test system of data set [1] is immune rejection of allotypic cornea transplantation. The conditions noted are these: rat; for effect on immune rejection in allotypic cornea transplantation: superficial (ocular surface) administration.
Data set [2] relates to immune rejection in high risk cornea transplantation. As to the kind of experiment: Clinical study of suppression of immune rejection in high risk cornea transplantation. The source says: Fifty-six high risk patients (56 eyes) who needed operation for cornea transplantation were randomly divided into a treatment group and a control group, each having […] patients. […] Average time for follow-up survey was 5½ months. The main criteria for clinical valuation include visual function, lasting time for transparency, new angiopoiesis, swelling, opaque degree of transplanted corneas after operation.
56 high risky patients (56 eyes) who need operation for cornea transplantation were chosen in this study with 32 eyes from male and 24 from female. The average age was 31 (19-66). Of which 27 eyes were carried for full cornea transplantation, 14 for full cornea transplantation with scleral ring, 10 eyes with angiopoiesis cornea were used for cornea transplantation, and 10 for multiple transplantations. Blindness was caused by pyogenic infection of eyes (30 eyes), severe chemical injury (18 eyes), and thermal burn (8 eyes).
The control medicine CsA was a product of Swiss Sandoz pharmaceuticals which was diluted to 1% eye drops with oleum ricini. Corticosteroid eye drops was also purchased commercially.
The above cases were randomly divided into treatment group and control group with each having 28 eyes. […] Medicines were given 3 days after surgery, continuing 3-9 months, follow-up survey was 5½ months.
Observation was done twice a week within 1-3 months after medication, then once a week after 3 months. The items for observation were vision and transplanted corneas (including three criteria: new angiopoiesis, swelling, opacity of transplanted corneas). The scores for each criterion are as follows: new angiopoiesis has grades 0-3, grade 0 indicates no new angiopoiesis (0 score), grade 1 a few new angiopoiesis focusing on transplanted corneas and starting penetration the edges of transplantation (1 score), grade 2 a few new angiopoiesis focusing on center of the transplanted corneas (2 scores), grade 3 a great numbers of new angiopoiesis fully covering the whole transplanted corneas (3 scores). The swelling contains grades 0-3, grade 0 means no swelling (0 score), grade 1 light swelling (1 score), grade 2 medium swelling (2 scores), grade 3 severe swelling (3 scores). […] Rejection index (RI) is a sum of the previous 3 criteria. When RI=5 scores it is considered rejection. The study would not cover the following conditions: epithelium had reaction of rejection, complication happened during operation, and swelling and dissolution of transplanted corneas occurred after operation due to a functional failure of implanted cornea endothelia, lesion fissure, secondary glaucoma, infection of transplantation.
All operations on patients in the study were done by professors in the Department of Corneal Diseases. Donor corneas were all freshly obtained from adults. Specific people were assigned for follow-up survey after surgery. t-test, u-test, and analysis of variance were carried out on the data using commercially available software.

Data set [3] has as its system immune-response related ocular surface diseases. Put plainly: Further clinical observations with topical tacrolimus in immune ocular diseases. In kind it is in vivo, patients.
Data set [4] concerns immunosuppression. The following applies: in vitro; cited from earlier work.
For data set [5] the following is noted: cited from earlier work.

Where two headings read alike, the source gives them in different places.

Regarding `C[C@@H]1C[C@H]2[C@@H]3CCC4=CC(=O)C=C[C@]4(C)[C@@]3(F)[C@@H](O)C[C@]2(C)[C@@]1(O)C(=O)CO` [corticosteroid, dexamethasone], in data set [1] (superficial administration), the “effect on inflammation in early phase” value is “strong inhibition effect” and the “inhibition of new angiopoiesis after cornea transplantation” value was “strongest effect”.
`C=CC[C@@H]1/C=C(\C)C[C@H](C)C[C@H](OC)[C@H]2O[C@@](O)(C(=O)C(=O)N3CCCC[C@H]3C(=O)O[C@H](/C(C)=C/[C@@H]3CC[C@@H](O)[C@H](OC)C3)[C@H](C)[C@@H](O)CC1=O)[C@H](C)C[C@@H]2OC.O` [tacrolimus, Tacrolimus]: the “effect on immune rejection in allotypic cornea transplantation” value in data set [1] is given as “clear inhibition”. In addition, the “effect on immune rejection in allotypic cornea transplantation” value in data set [1] (listed as Tecolimus) was “clearly therapeutic effects”. Also, the “effect on swelling of transplanted corneas in early phase” value in data set [1] (superficial administration) is “worse therapeutic effects”. Further, the “final rate of rejection to the transplantation” value in data set [2] (28 eyes per group, RI=5 counted as rejection, follow-up 5½ months) worked out at 60.8%. Further, in data set [2] (28 eyes per group, eye drops four times a day with TOBRA DEX), the “maintenance time for transparency in transplanted corneas after surgery” value is 70.4 ± 18.32 days. The “eyes with final vision (=0.05 for FK-506, =0.5 for CsA as printed)” value in data set [2] (28 eyes per group, with TOBRA DEX, follow-up 5½ months) came to 39.3%. Further, the “new angiopoiesis, swelling, opaqueness and RI values of cornea transplantation” value in data set [2] (during follow-up survey) is recorded as “much better than the CsA group”. For the same compound, the “adverse reactions (twinges, itches, toxic reactions on cornea epithelia)” value in data set [2] (topical eye drops, patients) is “No patient showed adverse reactions”. For the same compound, the “conjunctive inflammation non-responsive to CsA treatment” value in data set [3] (17 cases, topical administration) was “successfully controlled”. In data set [3] (26 cases, five months to two years, topical), the “recurrence of recurring erosive corneal ulcer” value is listed as “only three cases had recurrence”. Further, the “rejection reaction in cornea transplantation” value in data set [3] (64 cases, most of them, topical) was “significantly reduced rejection reaction”. Moreover, in data set [3] (topical administration), the “effect on Type I and IV hypersensitive reactions” value is on record as “significant therapeutic effects”; the “effect on Types II and III hypersensitive reactions (e.g. Steven Johnson Syndrome)” value was “some, but not complete therapeutic effect”; the “effect on re-construction of ocular surface and obstinate and immune corneal diseases” value is on record as “excellent clinical effects”. Further, the “effect on immunosuppression relative to CsA” value in data set [4] is reported as 10-100 folds. The terminal elimination half-life in data set [5] (healthy volunteers) was 21.2 h. The absorption half-life in data set [5] (oral dose, measured in 16 patients) was 5.7 ± 4.6 h. Further, the terminal elimination half-life in data set [5] (transplant patients) was 11.7 ± 3.9 h.
